# PMC8899577, “Targeting the anti-apoptotic Bcl-2 family proteins: machine learning virtual screening and biological evaluation of new small molecules” (Theranostics, 2022)
# How the values were obtained:
# HL60 cells [1] = experiment: Flow cytometry subG1 peak (PI staining), HL60; assay type: cell-based, Human; conditions: 20 µM for 24 h
# Description: Flow cytometric analysis (BD Accuri™ C6, BD Biosciences) was performed to evaluate cell cycle distribution by propidium iodide (PI) staining, and cell viability by using the PI dye exclusion assay as previously reported.
# Figure 5 Analysis of apoptosis induction by IS20 and IS21 in leukemia, melanoma and NSCLC cells. […] (A-F) Reported images are representative of two independent experiments with similar results. HSP72/73 or α-Tubulin are shown as loading and transferring control. (G) Flow cytometric quantification of cells in the subG1 peak of cell cycle distribution by propidium iodide staining in HL60 cell line treated with IS20 or IS21 (20 μM for 24 h) and in M14, H1299 and MDA-MB-231 cell lines treated with IS20 or IS21 (20 μM for 72 h). Data are reported as mean ± SD of three independent experiments. p-values were calculated between control (Ctrl) and treated cells, * p < 0.05. (H) Flow cytometric quantification of cells in the subG1 peak by propidium iodide staining in M14 and H1299 cell lines treated with IS20 or IS21 (20 μM, 72 h) in presence or absence of the pan caspase inhibitor z-VAD (50 μM). p-values were calculated between treated control (Ctrl) cells, # p < 0.01, ## p < 0.001 or between cells treated with IS20 or IS21 alone or in combination with z-VAD, * p < 0.05, ** p < 0.005. (G-H) Data are reported as mean of two (H) or three (G) experiments ± SD.
# Mcl-1 = Mcl-1 (Homo sapiens, UniProt Q07820); experiment: SPR binding to immobilized Mcl-1; conditions: 25 °C, 2-site fit, highest affinity site
# Description: (§1) FastStep experiments were performed with a SensiQ Pioneer apparatus. Bcl-2 immobilization on COOH5 sensorchips was carried out essentially as previously reported, [40]. All the experiments were carried out at 25 °C in degassed HEPES 20 mM, pH 7.4, NaCl 150 mM, 0.005% surfactant P20 + 2% DMSO (HBSP2%D). […] Each sensorgram is the average of at least three experiments. The decrease in Response Units (RU) after 165 s indicates analyte dissociation from the immobilized Bcl-2 upon HSBP2%D buffer injection. Control SPR experiments were carried out measuring sensorgrams on Bcl-xL and Mcl-1 (ligands) immobilized on COOH5 sensorchips as previously reported at 25 °C in degassed HBSP2%D buffer. […] Each sensorgram is the average of at least three experiments. The decrease in RU after 180 s indicates analyte dissociation from the immobilized ligands upon HSBP2%D buffer injection. Kinetic evaluation of the sensorgrams was carried out using the Qdat 4.0 program; best fittings were obtained with 2 sites and indicated in red (reported KD values refer to dissociation constants of the highest affinity site).
# Figure 3 SPR analysis of the interaction between IS20 or IS21 and Bcl-xL and Mcl-1 proteins. SPR experiments were carried out measuring sensorgrams on Bcl-xL and Mcl-1 (ligands) immobilized on COOH5 sensorchips at 25 °C in degassed HBSP2%D buffer. IS20 and IS21 (analytes) were injected at a flow rate = 30 μL/min, at the following concentrations: 0.3 μM (only for Mcl-1 experiments); 1 μM; 3 μM; 10 μM; 30 μM. Each sensorgram is the average of at least three experiments. The decrease in RU (Response Units) after 180 s indicates analyte dissociation from the immobilized ligands upon HSBP2%D buffer injection. The fitted KD values for Bcl-xL are the following. IS20: 0.42 ± 0.09 μM and IS21: 0.51 ± 0.17 μM. The fitted KD values for Mcl-1are the following. IS20: 3.9 ± 0.30 μM and IS21: 1.16 ± 0.14 μM;
# H1299 cells = experiment: Tumor sphere formation assay, H1299; assay type: cell-based, Human; conditions: 20 µM for 72 h, respect to controls
# Description: For tumor sphere assay, cells were recovered after treatment, counted and seeded in 24-well ultralow attachment surface plates at a density of 5 × 10^2 cells/well and cultured as previously described. After 10 days, spheres were photographed and counted. The percentage of spheres normalized to the number of seeded cells was calculated.
# Figure 4 Analysis of the effect of IS20 and IS21 on cell viability, clonogenic ability and tumor sphere formation in cancer cells. (A) Analysis of cell viability by MTT assay in M14, H1299, HCT116 and MDA-MB-231 cell lines treated with IS20 or IS21 (20 μM for 72 h). The results are reported as “viability of treated cells/viability of control cells (Ctrl)” × 100. (B) Representative images and quantification of clonogenic ability evaluated in M14 and H1299 cells treated with IS20 or IS21 (20 μM for 72 h). Results are reported as percentage of clonogenicity of treated versus control cells. (C) Quantification of tumor sphere formation of M14 and H1299 cells treated with IS20 or IS21 (20 μM for 72 h). Results are reported as percentage of tumor sphere formation of treated versus control. (A-C) Data are reported as mean ± SD of three independent experiments. p-values were calculated between control (Ctrl) and treated cells, ** p < 0.001 and *** p < 0.0001.
# HL60 cells [2] = experiment: Western blot of PARP1 cleavage, HL60; assay type: cell-based, Human; conditions: 20 µM for 24 h
# Description: Western blot analyses of total protein extracts were performed as previously described. Immunodetection was performed using antibodies directed to poly (ADP-ribose) polymerase (PARP; BD Biosciences San Diego, CA, USA), LC3B (Cell Signaling Technology, Danvers, MA), HSP72/73 (Calbiochem, EMD Biosciences, La Jolla, CA), Bcl-2 (SC-509, Santa Cruz Biotechnology Inc, Dallas, TX, USA), Bcl-xL (SC-271121, Santa Cruz Biotechnology Inc), Mcl-1 (SC-12756, Santa Cruz Biotechnology Inc) α-tubulin (Santa Cruz Biotechnology Inc) actin (Sigma-Aldrich, St. Louis, Missouri, USA). Anti-rabbit or anti-mouse immunoglobulin G-horseradish peroxidase-conjugated antibodies (Amersham Biosciences, Freiburg, Germany) were used as secondary antibody. Images were acquired by Image Lab Software (Bio-Rad, Hercules, CA, USA), using a ChemiDoc System instrument (Bio-Rad). […]
# Figure 5 Analysis of apoptosis induction by IS20 and IS21 in leukemia, melanoma and NSCLC cells. […] (G) Flow cytometric quantification of cells in the subG1 peak of cell cycle distribution by propidium iodide staining in HL60 cell line treated with IS20 or IS21 (20 μM for 24 h) and in M14, H1299 and MDA-MB-231 cell lines treated with IS20 or IS21 (20 μM for 72 h). Data are reported as mean ± SD of three independent experiments. p-values were calculated between control (Ctrl) and treated cells, * p < 0.05. […]
# Bcl-xL = Bcl-xL (Homo sapiens, UniProt Q07817); experiment: SPR binding to immobilized Bcl-xL; conditions: 25 °C, 2-site fit, highest affinity site
# Description: as §1
# Each sensorgram is the average of at least three experiments.
# U937 cells = experiment: Western blot of LC3B-I/LC3B-II (autophagy), U937; assay type: cell-based, Human; conditions: 20 µM for 24 h
# Chain of Bcl-xL (Q07817 whole entry): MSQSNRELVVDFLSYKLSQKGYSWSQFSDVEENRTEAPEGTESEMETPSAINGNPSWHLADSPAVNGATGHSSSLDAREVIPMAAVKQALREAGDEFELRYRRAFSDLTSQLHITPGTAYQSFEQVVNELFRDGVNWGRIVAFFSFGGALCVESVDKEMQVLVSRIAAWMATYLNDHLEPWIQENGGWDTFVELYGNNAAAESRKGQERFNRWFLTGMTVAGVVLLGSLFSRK
# Chain of Mcl-1 (Q07820 whole entry): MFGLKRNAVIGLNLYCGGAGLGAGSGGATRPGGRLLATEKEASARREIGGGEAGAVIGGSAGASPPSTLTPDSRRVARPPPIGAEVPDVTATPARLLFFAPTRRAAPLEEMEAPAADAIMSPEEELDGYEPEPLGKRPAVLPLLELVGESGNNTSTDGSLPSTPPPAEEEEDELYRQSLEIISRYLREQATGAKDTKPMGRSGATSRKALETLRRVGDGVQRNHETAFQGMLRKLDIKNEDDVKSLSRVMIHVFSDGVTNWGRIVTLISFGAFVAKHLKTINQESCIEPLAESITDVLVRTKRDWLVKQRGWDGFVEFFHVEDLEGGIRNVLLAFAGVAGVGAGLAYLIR
SMILES,"subG1 peak of cell cycle distribution, HL60 (HL60 cells [1])",Kd (Mcl-1) [nM],"decrease of sphere formation capacity, H1299 (H1299 cells)","PARP1 cleavage, HL60 (HL60 cells [2])",Kd (Bcl-xL) [nM],"ratio of LC3B-II on LC3B-I, U937 (U937 cells)"
CCCCOc1ccc(C2/C(=C(\O)c3ccc4c(c3)CC(C)O4)C(=O)C(=O)N2c2nnc(SCc3ccc(Cl)cc3)s2)cc1OCC (stereo not drawn) [IS20],presence of subG1 peak,3900 ± 300,about 60%,cleavage of PARP1,420 ± 90,Increased ratio
CCCCCOc1ccc(C2/C(=C(\O)c3ccc4c(c3)CC(C)O4)C(=O)C(=O)N2c2nnc(SCc3ccc(Cl)cc3)s2)cc1OCC (stereo not drawn) [IS21],presence of subG1 peak,1160 ± 140,about 60%,cleavage of PARP1,510 ± 170,Increased ratio
